Results on 6 compounds are retold here after the NIST ThermoML archive (doi:10.1016/j.jct.2007.10.007).

The nature of this series: mn = molality of the nth substance listed, in mol/kg. The conditions noted are these: 298.15 K, 101 kPa, Liquid.

± gives the expanded uncertainty stated by the source.

On to `CCCCn1cc[n+](C)c1.[Cl-]` [1-butyl-3-methylimidazolium chloride] + O, for which the mass density is 997.72 ± 0.51 kg/m3 (m1 = 0.05281); 998.29 ± 0.51 kg/m3 (m1 = 0.09783); 998.85 ± 0.51 kg/m3 (m1 = 0.1433); 999.56 ± 0.5 kg/m3 (m1 = 0.1998); 1000.15 ± 0.5 kg/m3 (m1 = 0.2471); 1000.69 ± 0.51 kg/m3 (m1 = 0.2899). The mass density turned out to be 1001.04 ± 0.51 kg/m3 (m1 = 0.3173), 1002.14 ± 0.52 kg/m3 (m1 = 0.4052), 1002.35 ± 0.52 kg/m3 (m1 = 0.422) and 1003.31 ± 0.52 kg/m3 (m1 = 0.4995). For the same compound, the speed of sound reads like this: (m1 = 0.05281) 1504.8 ± 1.5 m/s; (m1 = 0.09783) 1510.5 ± 1.5 m/s; (m1 = 0.1433) 1516.7 ± 1.5 m/s; (m1 = 0.1998) 1524.4 ± 1.5 m/s; (m1 = 0.2471) 1530.2 ± 1.5 m/s; (m1 = 0.2899) 1535.5 ± 1.5 m/s. The speed of sound reads like this: (m1 = 0.3173) 1539.1 ± 1.5 m/s; (m1 = 0.4052) 1549.9 ± 1.5 m/s; (m1 = 0.422) 1551.9 ± 1.5 m/s; (m1 = 0.4995) 1562.2 ± 1.5 m/s.

As to `Cl.Cn1ccnc1` [1-methylimidazolium chloride] + O, the mass density by setting is: (m1 = 0.05234) 998.29 ± 0.51 kg/m3; (m1 = 0.09548) 999.3 ± 0.51 kg/m3; (m1 = 0.147) 1000.49 ± 0.5 kg/m3; (m1 = 0.1998) 1001.69 ± 0.51 kg/m3; (m1 = 0.2472) 1002.77 ± 0.52 kg/m3; (m1 = 0.3011) 1003.97 ± 0.53 kg/m3. The mass density worked out at 1005.18 ± 0.54 kg/m3 (m1 = 0.3555), 1006.13 ± 0.54 kg/m3 (m1 = 0.3994), 1007.35 ± 0.55 kg/m3 (m1 = 0.4551) and 1008.62 ± 0.56 kg/m3 (m1 = 0.5139). Also, the speed of sound was 1501.6 ± 1.5 m/s (m1 = 0.05234); 1504.7 ± 1.5 m/s (m1 = 0.09548); 1508.5 ± 1.5 m/s (m1 = 0.147); 1512.5 ± 1.5 m/s (m1 = 0.1998); 1516 ± 1.5 m/s (m1 = 0.2472); 1519.9 ± 1.5 m/s (m1 = 0.3011). Further, the speed of sound is 1523.9 ± 1.5 m/s (m1 = 0.3555), 1526.3 ± 1.5 m/s (m1 = 0.3994), 1530.5 ± 1.5 m/s (m1 = 0.4551) and 1534.6 ± 1.5 m/s (m1 = 0.5139).

On to `Cl.c1c[nH]cn1` [imidazolium chloride] + O, for which the mass density runs as follows: (m1 = 0.04296) 998.24 ± 0.51 kg/m3; (m1 = 0.1027) 999.89 ± 0.5 kg/m3; (m1 = 0.153) 1001.26 ± 0.51 kg/m3; (m1 = 0.1976) 1002.47 ± 0.52 kg/m3; (m1 = 0.2417) 1003.72 ± 0.53 kg/m3; (m1 = 0.2914) 1004.65 ± 0.53 kg/m3. Also, the mass density runs as follows: (m1 = 0.34) 1006.45 ± 0.55 kg/m3; (m1 = 0.3893) 1007.62 ± 0.55 kg/m3; (m1 = 0.4495) 1008.96 ± 0.56 kg/m3; (m1 = 0.5003) 1010.31 ± 0.57 kg/m3. For the same compound, the speed of sound came to 1500.1 ± 1.5 m/s (m1 = 0.04296); 1503.8 ± 1.5 m/s (m1 = 0.1027); 1507 ± 1.5 m/s (m1 = 0.153); 1509.7 ± 1.5 m/s (m1 = 0.1976); 1512.4 ± 1.5 m/s (m1 = 0.2417); 1515.8 ± 1.5 m/s (m1 = 0.2914). Further, the speed of sound runs as follows: (m1 = 0.34) 1517.9 ± 1.5 m/s; (m1 = 0.3893) 1521.2 ± 1.5 m/s; (m1 = 0.4495) 1525.2 ± 1.5 m/s; (m1 = 0.5003) 1527.9 ± 1.5 m/s.

As to `O` [water] + CCCCn1cc[n+](C)c1.[Cl-], the speed of sound (m2 = 0) worked out at 1497.6 ± 1.5 m/s.

For `O` [water] + Cl.Cn1ccnc1, the speed of sound (m2 = 0) stood at 1497.6 ± 1.5 m/s.

For `O` [water] + Cl.c1c[nH]cn1, for the setting “m2 = 0”, the speed of sound amounted to 1497.6 ± 1.5 m/s.

For orientation: mass density means mass per unit of volume. For orientation: speed of sound means the propagation velocity of pressure waves in the medium.
